The target in test [1] is T1, Replicase polyprotein 1ab (Severe acute respiratory syndrome coronavirus 2, UniProt P0DTD1). Nature of the test: Inhibition of SARS-CoV-2 MPro.
A short description of test [2]: Inhibition of SARS-CoV PLpro expressed in Escherichia coli. Also noted: species or system Severe acute respiratory syndrome-related coronavirus.
Test [3] addresses T1, Replicase polyprotein 1ab. The test can be described thus: Inhibition of recombinant SARS-CoV-2 MPro incubated for 10 mins in presence of fluorogenic substrate.
In test [4] the target is T1, Replicase polyprotein 1ab. Nature of the test: Inhibition of SARS-CoV-2 PLpro expressed in Escherichia coli.
Test [5] can be described thus: Inhibition of recombinant SARS-CoV MPro. On the set-up: species or system Severe acute respiratory syndrome-related coronavirus.
The nature of test [6]: Inhibition of recombinant MERS-CoV MPro. Also noted: species or system Middle East respiratory syndrome-related coronavirus.

For `CN(C)C(=O)COC(=O)Cc1ccc(OC(=O)c2ccc(NC(=N)N)cc2)cc1` [CAMOSTAT], in test [1], the IC50 is greater than 20 µM.

`Cc1ccccc1C(=O)NC(C)c1ccc2ccccc2c1` (stereo unspecified): in test [2], the IC50 came to 20 µM.

On to `O=C[C@@H](C[C@@H]1CCNC1=O)NC(=O)[C@@H](Cc1cccc(F)c1)NC(=O)c1cc2ccccc2[nH]1`, for which the IC50 in test [1] and in test [3] was 0.04 µM each time.

On to `Cc1cccc(C)c1OCC(=O)N[C@@H](Cc1ccccc1)[C@@H](O)C[C@H](Cc1ccccc1)NC(=O)[C@H](C(C)C)N1CCCNC1=O` [LOPINAVIR], for which, in test [1], the IC50 is greater than 20 µM.

As for `CC(=O)Nc1ccc(C)c(C(=O)N[C@@H](C)c2cccc3ccccc23)c1`, the 50% inhibitory concentration (IC50) in test [4] is 5 µM; in test [2], 2.6 µM.

For the molecule `CC(C)(C)OC(=O)Nc1cccn([C@H](CC2CC2)C(=O)N[C@H](C[C@@H]2CCNC2=O)C(=O)C(=O)NCc2ccccc2)c1=O`, the IC50 in test [5] was determined as 0.9 µM; in test [6], 0.58 µM.

In turn, `COc1ccc(CNC(=O)C2CCN(Cc3cccc4ccccc34)CC2)cc1` came in with an IC50 in test [2] of 59 µM.

In test [2], `Cc1ccc(N)cc1C(=O)N[C@@H](C)c1cccc2ccccc12` gave an IC50 of 0.6 µM.

These data come from ChEMBL document CHEMBL5096141, “Protease targeted COVID-19 drug discovery and its challenges: Insight into viral main protease (Mpro) and papain-like protease (PLpro) inhibitors” (Bioorg Med Chem, 2021).
